# Measurements taken from article PMC5597121, “The human bitter taste receptor T2R38 is broadly tuned for bacterial compounds” (PLoS ONE, 2017).
# Several values for one entry are separate records, joined by “and”; a condition that tells them apart may be missing. Equal values may be shown once.
# How the values were obtained:
# T2R38 = biological target: T1, T2R38 (Homo sapiens, UniProt P59533, A49P/I296V); assay: Single cell calcium imaging, Peakrapid cells (Gα16gustducin44) transiently transfected with T2R38; type: cell-based
# T1 construct: leader: first 45 amino acids of rat somatostatin receptor subtype 3 (SSTR3) (N); expressed in transfected cells; host or cells: Peakrapid cells (HEK293 derivative, ATCC CRL-2828) stably expressing Galpha16gustducin44, co-transfected with human RTP4
# T1 sequence (P59533 1-333 A49P/I296V): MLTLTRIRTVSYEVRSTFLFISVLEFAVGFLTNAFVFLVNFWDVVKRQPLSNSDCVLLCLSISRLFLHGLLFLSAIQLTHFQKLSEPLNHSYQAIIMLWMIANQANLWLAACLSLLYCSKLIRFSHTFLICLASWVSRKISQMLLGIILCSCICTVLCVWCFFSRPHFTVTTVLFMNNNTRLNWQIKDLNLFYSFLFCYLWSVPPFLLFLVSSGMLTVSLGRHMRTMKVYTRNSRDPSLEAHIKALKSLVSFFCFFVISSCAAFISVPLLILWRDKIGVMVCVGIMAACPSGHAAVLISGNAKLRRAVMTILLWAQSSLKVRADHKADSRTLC
# Outline: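 HEK293-derived Peakrapid cells stably expressing Gα16gustducin44 were transiently co-transfected with T2R38 (PAV or AVI variant) plus RTP4, then loaded with Fluo4 40 h later. Calcium responses were imaged 1/s for 30 s after ligand injection. Responding-cell surface was normalized to 0.1 mM PTC, with EC50 from four-parameter fits; testing began at 100 mM.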
# [1] = Solubility in aqueous / buffer solution; type: physicochemical
# Procedure: 32 volatile metabolites of pathogens (S1 Fig) were selected from the literature. All compounds were dissolved in buffer solution, except C4HSL dissolved in buffer solution, DMSO or ethanol, C12HSL dissolved in DMSO or ethanol, and Agr D1 thiolactone dissolved in DMSO.
compound,measurement,setting,value
CC[C@H](C)[C@H](NC(=O)[C@H](Cc1ccccc1)NC(=O)[C@H](CC(=O)O)NC(=O)[C@H](CCCNC(=N)N)NC(=O)[C@H](Cc1ccccc1)NC(=O)[C@H](Cc1ccccc1)NC(=O)[C@H](CCCCN)NC(=O)[C@H](CO)NC(=O)[C@H](CC(C)C)NC(=O)[C@H](CCCNC(=N)N)NC(=O)[C@H](CCSC)NC(=O)[C@@H](N)CCC(=O)O)C(=O)N[C@@H](CC(C)C)C(=O)N[C@@H](CCC(N)=O)C(=O)N[C@@H](CCCNC(=N)N)C(=O)N[C@@H](CCCCN)C(=O)N[C@@H](CCCCN)C(=O)O [CSP-1],agonist activity on T2R38 (in words),T2R38,inactive
same,response of T2R38 transfected cells (S6_fig raw data),"T2R38; CSP-1 0.5 mM, T2R38, individual values of experiments 1-3",37.13% and 3.20% and 100.83%
same,solubility,[1],soluble at 0.5 mM in the buffer solution
